Patent US7365083B2, “Amide derivatives as NMDA receptor antagonists” (Richter Gedeon Vegyeszeti Gyar Rt., priority 2000, dated 2008)
Like-named read-outs stand apart in the source and are kept apart here.

Key:
Format in all cases: cell-based
[1] = molecular target: T1, NR1a/NR2A receptors (Rattus norvegicus, UniProt Q00959); assay: NMDA antagonist potency on HEK cells transiently transfected with NR1a/NR2A subunits, patch clamp method; conditions: HEK293, 15 μM test concentration, 100 μM NMDA, -70 mV, read-out: NR1/NR2A % Inhibition of NMDA Ca2+-response 15 μM
T1 construct: expressed in transfected cells; host or cells: HEK293, transient expression
T1 sequence (Q00959 20-1464 limits assumed): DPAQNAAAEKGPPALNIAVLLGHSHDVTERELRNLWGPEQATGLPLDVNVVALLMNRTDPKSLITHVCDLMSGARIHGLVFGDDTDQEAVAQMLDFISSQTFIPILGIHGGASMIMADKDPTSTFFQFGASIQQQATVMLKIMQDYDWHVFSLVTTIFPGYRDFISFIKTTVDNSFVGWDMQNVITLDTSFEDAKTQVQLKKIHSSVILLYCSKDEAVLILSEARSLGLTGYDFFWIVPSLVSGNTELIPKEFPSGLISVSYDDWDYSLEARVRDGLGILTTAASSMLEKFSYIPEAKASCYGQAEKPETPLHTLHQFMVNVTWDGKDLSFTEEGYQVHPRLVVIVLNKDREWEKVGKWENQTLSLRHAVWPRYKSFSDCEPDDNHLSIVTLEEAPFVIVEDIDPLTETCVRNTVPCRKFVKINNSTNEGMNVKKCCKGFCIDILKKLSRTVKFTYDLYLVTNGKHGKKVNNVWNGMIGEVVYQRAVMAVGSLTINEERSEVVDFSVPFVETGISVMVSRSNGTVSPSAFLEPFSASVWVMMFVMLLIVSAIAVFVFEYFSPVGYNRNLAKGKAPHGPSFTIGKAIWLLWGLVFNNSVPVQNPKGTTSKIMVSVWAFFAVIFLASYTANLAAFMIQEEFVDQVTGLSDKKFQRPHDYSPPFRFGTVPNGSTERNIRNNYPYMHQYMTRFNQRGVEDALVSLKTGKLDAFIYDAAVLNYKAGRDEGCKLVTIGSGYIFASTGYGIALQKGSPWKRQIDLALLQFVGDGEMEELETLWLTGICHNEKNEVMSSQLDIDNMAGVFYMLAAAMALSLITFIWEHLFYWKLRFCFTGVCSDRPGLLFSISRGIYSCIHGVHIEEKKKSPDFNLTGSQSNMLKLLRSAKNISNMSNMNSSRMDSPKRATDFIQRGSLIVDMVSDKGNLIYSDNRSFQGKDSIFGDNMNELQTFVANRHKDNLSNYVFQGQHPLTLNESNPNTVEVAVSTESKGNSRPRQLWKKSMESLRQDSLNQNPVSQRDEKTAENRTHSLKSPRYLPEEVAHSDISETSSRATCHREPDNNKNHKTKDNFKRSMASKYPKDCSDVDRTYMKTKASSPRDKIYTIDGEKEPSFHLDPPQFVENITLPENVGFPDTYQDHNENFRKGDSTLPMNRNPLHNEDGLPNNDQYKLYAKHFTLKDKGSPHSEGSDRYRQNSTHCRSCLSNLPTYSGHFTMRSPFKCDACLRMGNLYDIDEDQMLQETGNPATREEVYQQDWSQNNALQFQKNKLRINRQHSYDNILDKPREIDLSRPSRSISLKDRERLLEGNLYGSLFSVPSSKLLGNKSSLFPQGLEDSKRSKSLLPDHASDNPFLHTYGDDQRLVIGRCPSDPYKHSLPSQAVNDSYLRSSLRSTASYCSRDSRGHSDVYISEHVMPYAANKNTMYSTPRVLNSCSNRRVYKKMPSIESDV
Experimental: (§1) Genes cloned according to published sequences [gi508809 (rat NR1a), gi205738 (rat NR2B), gi2905805 (rat NR2A)] were inserted into inducible mammalian expression vectors bearing different resistance genes (hygromycine in case of NR1a or neomycine in case of NR2 subunits). The vector constructs were introduced into HEK293 cells using a cationic lipid-mediated transfection method. Protein expression was induced by 3 μM MuristeronA. Cells were maintained in the presence of 365 μM ketamine for 48-72 hours under an atmosphere of 95% air-5% CO2 at 37° C. before the experiments.
Assessment of NMDA Antagonist Potency on Cells Transfected with NR1a/NR2A Subunits—Patch Clamp Method
Cells transiently expressing NR1a/NR2A receptors and grown onto coverslips were used in patch clamp experiments. Whole-cell patch clamp recording was done according to the standard technique. Cell cultures were constantly superfused with an extracellular solution (140 mM NaCl, 5 mM KCl, 5 mM Hepes, 5 mM Na-Hepes, 2 mM CaCl2, 20 mM glucose, 10 μM glycine, pH 7.35) at room temperature. Patch pipettes with resistance between 3 and 6 MΩ were filled with an intracellular solution (140 mM CsCl, 11 mM EGTA, and 10 mM Hepes, pH 7.3). The inward current elicited by 100 μM NMDA was recorded from cells voltage clamped at −70 mV. Compounds were applied via a multibarrel ejection device controlled by electromagnetic valves. First NMDA was repeatedly administered until stabilization of responses, then it was given in the presence of the test compound. The degree of inhibition—expressed as percentage—was calculated from the peak currents evoked by NMDA in the presence and absence of the test compound. Selectivity ratio (NR2B/NR2A), was calculated as the ratio of test dose on NR1/2A transfected cells and IC50 value of NMDA antagonism on NR1/NR2B expressing cells.

[2] = molecular target: T2, NMDA receptors (Rattus norvegicus, UniProt P35439+Q00960); assay: NMDA antagonist potency in vitro by measurement of intracellular calcium concentration with a plate reader fluorimeter, primary neocortical cell cultures
T2 construct: primary neocortical cell cultures derived from 17 day old Charles River rat embryos; endogenous in cells; host or cells: primary neocortical neurons from 17 day old rat embryos, 4-7 days in vitro
T2 sequence (Q00960 27-1482, other chains not shown): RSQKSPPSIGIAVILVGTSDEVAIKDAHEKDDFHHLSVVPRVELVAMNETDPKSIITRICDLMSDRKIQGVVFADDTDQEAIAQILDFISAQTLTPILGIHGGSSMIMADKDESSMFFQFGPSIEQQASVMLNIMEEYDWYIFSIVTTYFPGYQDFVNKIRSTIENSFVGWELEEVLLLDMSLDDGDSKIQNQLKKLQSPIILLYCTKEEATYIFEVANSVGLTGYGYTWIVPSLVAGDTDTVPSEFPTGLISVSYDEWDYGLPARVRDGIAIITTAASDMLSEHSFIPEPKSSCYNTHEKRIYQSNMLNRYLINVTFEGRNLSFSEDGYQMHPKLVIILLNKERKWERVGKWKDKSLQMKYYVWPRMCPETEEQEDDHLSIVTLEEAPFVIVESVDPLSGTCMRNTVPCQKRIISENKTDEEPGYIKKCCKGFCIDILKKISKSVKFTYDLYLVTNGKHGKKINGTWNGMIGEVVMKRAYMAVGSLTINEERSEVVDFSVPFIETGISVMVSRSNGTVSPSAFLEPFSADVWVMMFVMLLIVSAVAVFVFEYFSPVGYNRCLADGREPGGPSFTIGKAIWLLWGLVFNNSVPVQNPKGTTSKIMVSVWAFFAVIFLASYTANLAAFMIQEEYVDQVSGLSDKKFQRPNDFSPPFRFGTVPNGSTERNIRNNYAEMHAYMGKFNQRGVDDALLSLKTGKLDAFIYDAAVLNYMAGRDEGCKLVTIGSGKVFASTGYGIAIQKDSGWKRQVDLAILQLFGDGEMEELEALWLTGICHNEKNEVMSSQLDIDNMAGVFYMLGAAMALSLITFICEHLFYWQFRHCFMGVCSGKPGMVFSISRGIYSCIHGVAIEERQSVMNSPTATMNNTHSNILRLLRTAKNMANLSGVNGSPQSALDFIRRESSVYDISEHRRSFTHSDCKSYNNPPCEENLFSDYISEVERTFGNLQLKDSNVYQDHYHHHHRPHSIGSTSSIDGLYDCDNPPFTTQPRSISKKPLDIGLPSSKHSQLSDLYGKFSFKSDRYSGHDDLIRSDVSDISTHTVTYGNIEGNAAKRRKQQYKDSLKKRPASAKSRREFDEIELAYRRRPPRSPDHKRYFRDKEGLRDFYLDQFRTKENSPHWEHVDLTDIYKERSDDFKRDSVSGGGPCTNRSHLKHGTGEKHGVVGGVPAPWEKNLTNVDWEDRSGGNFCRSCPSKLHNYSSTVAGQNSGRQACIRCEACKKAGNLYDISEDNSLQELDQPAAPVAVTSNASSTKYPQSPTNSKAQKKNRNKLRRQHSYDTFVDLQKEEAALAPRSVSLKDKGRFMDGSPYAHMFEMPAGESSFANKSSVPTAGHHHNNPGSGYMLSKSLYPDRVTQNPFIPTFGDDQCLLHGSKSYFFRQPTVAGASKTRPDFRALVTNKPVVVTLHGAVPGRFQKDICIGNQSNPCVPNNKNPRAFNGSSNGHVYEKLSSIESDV
Excerpt: It is known that during postnatal development the subunit composition of neuronal NMDA receptors is changing. […] Since NMDA receptors are known to be permeable to calcium ions upon excitation, we characterized the NMDA receptor activation by measurement of rise in intracellular calcium concentration following the agonist (NMDA) application to the cells.
Assessment of NMDA Antagonist Potency In Vitro by Measurement of Intracellular Calcium Concentration with a Plate Reader Fluorimeter
The cultures were used for the intracellular calcium measurements after 4-7 days in vitro. […] To stop the loading the cells were washed twice with the solution used for the measurement (140 mM NaCl, 5 mM KCl, 2 mM CaCl2, 5 mM HEPES, 5 mM HEPES-Na, 20 mM glucose, 10 μM glycine, pH=7.4). After washing the test compounds were added to the cells in the above solution (90 μl/well). Intracellular calcium measurements were carried out with a plate reader fluorimeter: elevation of Fluo-4-fluorescence and so, intracellular calcium was induced by application of 40 μM NMDA. Inhibitory potency of the test compounds was assessed by measuring the reduction in the calcium elevation in the presence of different concentrations of the compounds. After the measurement a standard calibration procedure with slight modifications was used to convert the fluorescent data to calcium concentration values [Meth. Cell.
Dose-response curves and IC50-values were calculated by using data derived from at least three independent experiments. Inhibitory potency of a compound at a single concentration point was expressed as percent inhibition of the NMDA response. Sigmoidal concentration-inhibition curves were fit to the data and IC50 values were determined as the concentration that produces half of the maximal inhibition caused by the compound.

[3] = molecular target: T3, NR1a/NR2B receptors (Rattus norvegicus, UniProt P35439+Q00960); assay: NMDA antagonist potency on HEK293 cells stably expressing NR1a/NR2B subunits, fluorimetric method; conditions: for IC50: HEK293 cells stably expressing NR1a/NR2B, intracellular calcium, plate reader fluorimeter, means of 3 experiments, read-out: NR1/NR2B IC50
T3 construct: expressed in transfected cells
T3 sequence (Q00960 27-1482, other chains not shown): as above
Experimental: as §1
Assessment of NMDA Antagonist Potency on Cells Transfected with NR1a/NR2B Subunits—Fluorimetric Method
For establishment of cell clones stably expressing NR1a/NR2B receptors, transfected cells were exposed to the selecting antibiotics for 4 weeks then resistant clones were grown up. The expression of NR2B subunit protein was verified by a flow cytometry based immunocytochemical method. Positive clones were further tested for functional activity in patch clamp experiments. […] Induction of protein expression and maintenance of cells were the same as described above.
The cells were plated onto standard 96-well microplates. A plate reader-based fluorometric assay was used to measure NMDA antagonism. The method was essentially similar to that described above for testing primary cultures of rat cortical neurons.

[4] = rat primary neocortical cultures, 4-7 days in vitro, calcium elevation induced by 40 μM NMDA, Fluo-4, read-out: NMDA IC50

| IC50 [2, 4] [nM] | Compound | other results |
| --- | --- | --- |
| – | C[C@@H]([C@@H](O)c1ccc(O)cc1)N1CCC(O)(c2ccccc2)CC1 [CP 101,606, (1S,2S)-1-(4-hydroxyphenyl)-2-(4-hydroxy-4-phenylpiperidine-1-yl)-1-propanol, reference compound] | inhibition at 15 µM [1]: -8.8% |
| 60 | Oc1ccc(OCCN2CCC(Cc3ccc(F)cc3)CC2)cc1 [Co-111103, 1-[2-(4-hydroxyphenoxy)ethyl]-4-(4-fluorobenzyl)piperidine, reference compound] | – |
| 90 | O=C(c1cc2ccc(O)cc2[nH]1)N1CCC(Cc2ccc(F)cc2)CC1 [Compound 4513848, 1-[4-(4-Fluorobenzyl)piperidine-1-yl]-1-(6-hydroxy-1H-indole-2-yl)methanone] | – |
| 392 | O=C(c1cc2ccc3[nH]ccc3c2[nH]1)N1CCC(Cc2ccccc2)CC1 [Compound 4514305, 1-(4-Benzylpiperidin-1-yl)-1-(1,6-dihydro-1,6-diaza-as-indacene-2-yl)methanone] | – |
| 9 | Cc1ccc(CC2CCN(C(=O)c3nc4ccc(O)cc4[nH]3)CC2)cc1 [Compound 4570001378, (6-Hydroxy-1H-benzoimidazol-2-yl)-[4-(4-methyl-benzyl)-piperidine-1-yl]-methanone] | – |
| – | O=C(c1cc2cc3[nH]c(=O)oc3cc2[nH]1)N1CCC(Cc2ccccc2)CC1 [Compound 4570001461, 6-(4-Benzylpiperidin-1-carbonyl)-1,5-dihydro-oxazolo[4,5-f]indole-2-one] | IC50 [3]: 15 nM; inhibition at 15 µM [1]: 14.9% |
| 79 | O=C(c1cc2cc3[nH]c(=O)oc3cc2[nH]1)N1CCC(OCc2ccccc2)CC1 [Compound 4570001462, 6-(4-Benzyloxypiperidin-1-carbonyl)-1,5-dihydro-oxazolo[4,5-f]indole-2-one] | – |
| 41 | O=C(c1cc2cc3[nH]c(=O)oc3cc2[nH]1)N1CCC(Cc2ccc(F)cc2)CC1 [Compound 4570001484, 6-[4-(4-Fluorobenzyl)piperidin-1-carbonyl]-1,5-dihydro-oxazolo[4,5-f]indole-2-one] | – |
| 150 | O=C(c1cc2c(ccc3cn[nH]c32)[nH]1)N1CCC(Cc2ccc(F)cc2)CC1 [Compound 4570001661, [4-(4-Fluorobenzyl)piperidin-1-yl]-(1,6-dihydro-pirrolo[2,3-g]indazol-7-yl)-methanone] | – |
| 58 | O=C(c1cc2c(ccc3cn[nH]c32)[nH]1)N1CCC(Cc2ccccc2)CC1 [Compound 4570001662, (4-Benzylpiperidin-1-yl)-(1,6-dihydro-pirrolo[2,3-g]indazol-7-yl)-methanone] | – |
| 88 | O=C(c1cc2c(ccc3[nH]cnc32)[nH]1)N1CCC(Cc2ccc(F)cc2)CC1 [Compound 4570001688, [4-(4-Fluorobenzyl)piperidin-1-yl]-(3,6-dihydro-imidazo[4,5-e]indol-7-yl)methanone] | – |
| 20 | O=C(c1cc2c(ccc3[nH]ncc32)[nH]1)N1CCC(Cc2ccccc2)CC1 [Compound 4570001689, (4-Benzylpiperidin-1-yl)-(3,6-dihydro-pirrolo[3,2-e]indazol-7-yl)methanone] | – |
| 22 | O=C(c1cc2c(ccc3[nH]ncc32)[nH]1)N1CCC(Cc2ccc(F)cc2)CC1 [Compound 4570001690, [4-(4-Fluorobenzyl)piperidin-1-yl]-(3,6-dihydro-pirrolo[3,2-e]indazol-7-yl)methanone] | – |
| 50 | O=C(c1cc2c(ccc3[nH]cnc32)[nH]1)N1CCC(Cc2ccccc2)CC1 [Compound 4570001779, (4-Benzylpiperidin-1-yl)-(3,6-dihydro-imidazo[4,5-e]indol-7-yl)methanone] | – |
| 328 | O=C(c1nc2c(ccc3oc(=O)[nH]c32)[nH]1)N1CCC(Cc2ccccc2)CC1 [Compound 4570001971, 7-(4-Benzylpiperidin-1-carbonyl)-1,6-dihydro-3-oxa-1,6,8-triaza-as-indacen-2-one] | – |
| 193 | O=C(c1nc2cc3[nH]c(=O)oc3cc2[nH]1)N1CCC(Cc2ccccc2)CC1 [Compound 4570001972, 6-(4-Benzylpiperidin-1-carbonyl)-3,5-dihydro-imidazo[4′,5′;4,5]benzo[1,2-d]oxazole-2-one] | – |
| 440 | O=C(c1cc2cc3[nH]c(=O)[nH]c3cc2[nH]1)N1CCC(Cc2ccccc2)CC1 [Compound 4570002045, 6-(4-Benzylpiperidin-1-carbonyl)-3,5-dihydro-1H-imidazo[4,5-f]indole-2-one] | – |
| 42 | Cc1ccc(OC2CCN(C(=O)c3cc4c(ccc5[nH]ncc54)[nH]3)CC2)cc1 [Compound 4570002260, (3,6-Dihydro-pirrolo[3,2-e]indazol-7-yl)-(4-p-tolyloxypiperidin-1-yl)methanone] | IC50 [3]: 30 nM; selectivity toward NR2B subunit containing NMDA receptors (in words) ([3]; according to the results in Table 2): highly selective; Selectivity (selectivity ratio NR2B/NR2A) ([3]; ratio of test concentration on NR1/NR2A transfected cells and IC50 value on NR1/NR2B expressing cells): >500; inhibition at 15 µM [1]: 3.3% |
| 127 | Cc1ccc(CC2CCN(C(=O)c3cc4c(ccc5[nH]ncc54)[nH]3)CC2)cc1 [Compound 4570002340, (3,6-Dihydro-pirrolo[3,2-e]indazol-7-yl)-[4-(4-methylbenzyl)piperidin-1-yl]methanone] | – |
| – | C[C@@H](CN1CCC(Cc2ccccc2)CC1)[C@@H](O)c1ccc(O)cc1 [Ro 25.6981, R-(R*,S*)-1-(4-hydroxyphenyl)-2-methyl-3-[4-(phenylmethyl)piperidin-1-yl]-1-propanol, reference compound] | IC50 [2]: 159 nM |

| Compound | IC50 [2, 4] [nM] | other results |
| --- | --- | --- |
| O=C(CCN1CCC(Cc2ccc(F)cc2)CC1)c1ccc2[nH]c(=O)oc2c1 [EMD 95885, reference compound] | 35 | – |
